Results reported in PubChem BioAssay (NCI).
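All cell lines were grown in 96-well plates and treated with compound for 48 hours. GI50 is the concentration that inhibits growth by half. TGI: total growth inhibition.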 *1 amine or outer side, *2 acyl side, *3 side chain or, on linkers, in order; H or OH if unused. Where a SMILES comes first, the peptide text is derived from it. Bridges are numbered along the chain shown (N, C = ends). [ ]: non-standard residue; d: D form. The star is where a group is joined. Phe(3,5-F2) = N[C@@H](Cc1cc(F)cc(F)c1)C(=O)O; Pro(4R-Me) = C[C@H]1CN[C@H](C(=O)O)C1; aThr = C[C@H](O)[C@H](N)C(=O)O; Pip = O=C(O)[C@@H]1CCCCN1; X10 = Fc1cc(C2CC2)ccc1N*; Abu = CC[C@H](N)C(=O)O; CO = O=C([*:1])[*:2]

Tests used:
Experiment in all cases: NCI anticancer screen, dose series, 48 h
LOX IMVI melanoma = test system: LOX IMVI melanoma
MALME-3M melanoma = test system: MALME-3M melanoma
PC-3 prostate = test system: PC-3 prostate
UACC-257 melanoma = test system: UACC-257 melanoma
RPMI-8226 leukemia = test system: RPMI-8226 leukemia
IGROV1 ovarian = test system: IGROV1 ovarian
HCT-116 colon = test system: HCT-116 colon
OVCAR-4 ovarian = test system: OVCAR-4 ovarian
K-562 leukemia = test system: K-562 leukemia
SK-MEL-28 melanoma = test system: SK-MEL-28 melanoma
T-47D breast = test system: T-47D breast
UO-31 renal = test system: UO-31 renal
SNB-19 CNS = test system: SNB-19 CNS
COLO 205 colon = test system: COLO 205 colon
SK-MEL-5 melanoma = test system: SK-MEL-5 melanoma
M14 melanoma = test system: M14 melanoma
U251 CNS = test system: U251 CNS
CAKI-1 renal = test system: CAKI-1 renal
SF-268 CNS = test system: SF-268 CNS
OVCAR-3 ovarian = test system: OVCAR-3 ovarian
EKVX NSCLC = test system: EKVX NSCLC
HCT-15 colon = test system: HCT-15 colon
TK-10 renal = test system: TK-10 renal
ACHN renal = test system: ACHN renal
MDA-MB-231 breast = test system: MDA-MB-231 breast
SF-295 CNS = test system: SF-295 CNS
A498 renal = test system: A498 renal
NCI/ADR-RES ovarian = test system: NCI/ADR-RES ovarian
DU-145 prostate = test system: DU-145 prostate
OVCAR-8 ovarian = test system: OVCAR-8 ovarian
HOP-92 NSCLC = test system: HOP-92 NSCLC
NCI-H460 lung = test system: NCI-H460 lung
NCI-H522 lung = test system: NCI-H522 lung
OVCAR-5 ovarian = test system: OVCAR-5 ovarian
CCRF-CEM leukemia = test system: CCRF-CEM leukemia
HOP-62 NSCLC = test system: HOP-62 NSCLC
A549 NSCLC = test system: A549 NSCLC
SK-OV-3 ovarian = test system: SK-OV-3 ovarian
SNB-75 CNS = test system: SNB-75 CNS
HL-60(TB) leukemia = test system: HL-60(TB) leukemia
786-0 renal = test system: 786-0 renal
MOLT-4 leukemia = test system: MOLT-4 leukemia
SR leukemia = test system: SR leukemia
UACC-62 melanoma = test system: UACC-62 melanoma
SF-539 CNS = test system: SF-539 CNS
HT29 colon = test system: HT29 colon
NCI-H23 lung = test system: NCI-H23 lung
RXF 393 renal = test system: RXF 393 renal
SN12C renal = test system: SN12C renal
HCC-2998 colon = test system: HCC-2998 colon
NCI-H226 lung = test system: NCI-H226 lung
KM12 colon = test system: KM12 colon
SK-MEL-2 melanoma = test system: SK-MEL-2 melanoma
HS 578T breast = test system: HS 578T breast
MCF7 breast = test system: MCF7 breast
SW-620 colon = test system: SW-620 colon
MDA-MB-435 = test system: MDA-MB-435
BT-549 breast = test system: BT-549 breast

For `CC[C@@H]1NC(=O)[C@@H]2CCCCN2C(=O)[C@@H]2CCCN2C(=O)[C@@H](NC(=O)[C@H](Cc2cc(F)cc(F)c2)NC(=O)Nc2ccc(C3CC3)cc2F)[C@H](C)OC(=O)[C@@H]2C[C@@H](C)CN2C1=O` ({X10-CO}-[Phe(3,5-F2)][aThr]P[Pip][Abu][Pro(4R-Me)]; ester 2-C), the GI50 (LOX IMVI melanoma) was 74.8 nM, the TGI (LOX IMVI melanoma) was 4380 nM and the GI50 (MALME-3M melanoma) was 108 nM. For the same molecule, the TGI (MALME-3M melanoma) was 2930 nM, the GI50 (PC-3 prostate) was 39.6 nM and the TGI (PC-3 prostate) was 13000 nM. The GI50 (UACC-257 melanoma) was 48.3 nM, the TGI (UACC-257 melanoma) was 6260 nM and the GI50 (RPMI-8226 leukemia) was 32.3 nM. For the same molecule, the TGI (RPMI-8226 leukemia) was 1670 nM, the GI50 (IGROV1 ovarian) was 223 nM and the TGI (IGROV1 ovarian) was greater than 36700 nM. It also gave a GI50 (HCT-116 colon) of 42.7 nM, a TGI (HCT-116 colon) of 1610 nM and a GI50 (OVCAR-4 ovarian) of 37.2 nM. For the same molecule, the TGI (OVCAR-4 ovarian) was 3260 nM, the GI50 (K-562 leukemia) was 39.1 nM and the TGI (K-562 leukemia) was greater than 100000 nM. For the same molecule, the GI50 (SK-MEL-28 melanoma) was 178 nM, the TGI (SK-MEL-28 melanoma) was 2420 nM and the GI50 (T-47D breast) was 62.7 nM. For the same molecule, the TGI (T-47D breast) was 8160 nM, the GI50 (UO-31 renal) was 326 nM and the TGI (UO-31 renal) was 9470 nM. The GI50 (SNB-19 CNS) was 44.3 nM, the TGI (SNB-19 CNS) was greater than 56500 nM and the GI50 (COLO 205 colon) was 39.7 nM. It also gave a TGI (COLO 205 colon) of 1290 nM, a GI50 (SK-MEL-5 melanoma) of 59.2 nM and a TGI (SK-MEL-5 melanoma) of 1210 nM. For the same molecule, the GI50 (M14 melanoma) was 50.1 nM, the TGI (M14 melanoma) was 1860 nM and the GI50 (U251 CNS) was 52.4 nM. The TGI (U251 CNS) was greater than 56600 nM, the GI50 (CAKI-1 renal) was 54.7 nM and the TGI (CAKI-1 renal) was 7250 nM. For the same molecule, the GI50 (SF-268 CNS) was 59.1 nM, the TGI (SF-268 CNS) was greater than 49600 nM and the GI50 (OVCAR-3 ovarian) was 46.3 nM. It also gave a TGI (OVCAR-3 ovarian) of 2030 nM, a GI50 (EKVX NSCLC) of 76.7 nM and a TGI (EKVX NSCLC) greater than 100000 nM. The GI50 (HCT-15 colon) was 220 nM, the TGI (HCT-15 colon) was 2250 nM and the GI50 (TK-10 renal) was 954 nM. It also gave a TGI (TK-10 renal) greater than 39100 nM, a GI50 (ACHN renal) of 237 nM and a TGI (ACHN renal) of 6840 nM. The GI50 (MDA-MB-231 breast) was 44.7 nM, the TGI (MDA-MB-231 breast) was 1500 nM and the GI50 (SF-295 CNS) was 55.2 nM. The TGI (SF-295 CNS) was 1540 nM, the GI50 (A498 renal) was 32 nM and the TGI (A498 renal) was 1060 nM. For the same molecule, the GI50 (NCI/ADR-RES ovarian) was 505 nM, the TGI (NCI/ADR-RES ovarian) was greater than 38100 nM and the GI50 (DU-145 prostate) was 59.3 nM. It also gave a TGI (DU-145 prostate) greater than 100000 nM, a GI50 (OVCAR-8 ovarian) of 42.7 nM and a TGI (OVCAR-8 ovarian) greater than 100000 nM. For the same molecule, the GI50 (HOP-92 NSCLC) was 54.7 nM, the TGI (HOP-92 NSCLC) was 4060 nM and the GI50 (NCI-H460 lung) was 45.9 nM. The TGI (NCI-H460 lung) was 2620 nM, the GI50 (NCI-H522 lung) was 56 nM and the TGI (NCI-H522 lung) was 8480 nM. For the same molecule, the GI50 (OVCAR-5 ovarian) was 67.9 nM, the TGI (OVCAR-5 ovarian) was 2630 nM and the GI50 (CCRF-CEM leukemia) was 60.3 nM. For the same molecule, the TGI (CCRF-CEM leukemia) was greater than 100000 nM, the GI50 (HOP-62 NSCLC) was 65.8 nM and the TGI (HOP-62 NSCLC) was greater than 86200 nM. The GI50 (A549 NSCLC) was 62.5 nM, the TGI (A549 NSCLC) was greater than 65000 nM and the GI50 (SK-OV-3 ovarian) was 64.2 nM. It also gave a TGI (SK-OV-3 ovarian) of 9830 nM, a GI50 (SNB-75 CNS) of 66.7 nM and a TGI (SNB-75 CNS) of 6190 nM. For the same molecule, the GI50 (HL-60(TB) leukemia) was 39.9 nM, the TGI (HL-60(TB) leukemia) was 1650 nM and the GI50 (786-0 renal) was 205 nM. It also gave a TGI (786-0 renal) of 15800 nM, a GI50 (MOLT-4 leukemia) of 271 nM and a TGI (MOLT-4 leukemia) greater than 30000 nM. It also gave a GI50 (SR leukemia) of 115 nM, a TGI (SR leukemia) of 3380 nM and a GI50 (UACC-62 melanoma) of 81.3 nM. For the same molecule, the TGI (UACC-62 melanoma) was 2700 nM, the GI50 (SF-539 CNS) was 137 nM and the TGI (SF-539 CNS) was 2460 nM. It also gave a GI50 (HT29 colon) of 70.9 nM, a TGI (HT29 colon) of 5490 nM and a GI50 (NCI-H23 lung) of 65.9 nM. For the same molecule, the TGI (NCI-H23 lung) was greater than 28600 nM, the GI50 (RXF 393 renal) was 419 nM and the TGI (RXF 393 renal) was 2790 nM. The GI50 (SN12C renal) was 42.9 nM, the TGI (SN12C renal) was greater than 33800 nM and the GI50 (HCC-2998 colon) was 61.9 nM. It also gave a TGI (HCC-2998 colon) of 1620 nM, a GI50 (NCI-H226 lung) of 63.2 nM and a TGI (NCI-H226 lung) of 2570 nM. For the same molecule, the GI50 (KM12 colon) was 258 nM, the TGI (KM12 colon) was 3860 nM and the GI50 (SK-MEL-2 melanoma) was 90.2 nM. For the same molecule, the TGI (SK-MEL-2 melanoma) was 2570 nM, the GI50 (HS 578T breast) was 83 nM and the TGI (HS 578T breast) was 4980 nM. The GI50 (MCF7 breast) was 43.7 nM, the TGI (MCF7 breast) was 14900 nM and the GI50 (SW-620 colon) was 67.9 nM. It also gave a TGI (SW-620 colon) greater than 43200 nM, a GI50 (MDA-MB-435) of 49 nM and a TGI (MDA-MB-435) of 1720 nM. For the same molecule, the GI50 (BT-549 breast) was 90.5 nM.
